# Patent publication US7118895B2, “Process for producing aglycon by using diglycosidase and flavor-improved food containing the aglycon and converting agent to be used in the process” (Amano Enzyme Inc., priority 2000, dated 2006)
# System: Crude diglycosidase
# Experiment: Examination of temperature in the conversion into isoflavone aglycons by diglycosidase using soybean materials
# Format: biochemical, Penicillium multicolor IAM7153
# Set-up: Decomposition efficiency of glycitin family in roasted soy flour / Decomposition efficiency of daidzin family in roasted soy flour / Decomposition efficiency of genistin family in soymilk / Decomposition efficiency of daidzin family in soymilk / Decomposition efficiency of glycitin family in defatted soybean / Decomposition efficiency of daidzin family in defatted soybean: concentration or dose not given beside the values
# Summary of the method: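 Soybean materials (50 mg) suspended in 20 mM acetate buffer pH 4.0 reacted with crude diglycosidase diluted to 1.88 AU/mL at 80, 65, 55, 45, 37 or 30° C. Reactions stopped with ethanol at 0, 1, 3 and 6 h; isoflavone glycosides and aglycons in supernatant detected by HPLC.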
# [1] = 30° C., heat treatment of enzyme no, reaction time 0 h
# [2] = 30° C., heat treatment of enzyme no, reaction time 1 h
# [3] = 30° C., heat treatment of enzyme no, reaction time 3 h
# [4] = 30° C., heat treatment of enzyme no, reaction time 6 h
# [5] = 30° C., heat treatment of enzyme yes, reaction time 6 h
# [6] = 45° C., heat treatment of enzyme no, reaction time 0 h
# [7] = 45° C., heat treatment of enzyme no, reaction time 1 h
# [8] = 45° C., heat treatment of enzyme no, reaction time 3 h
# [9] = 45° C., heat treatment of enzyme no, reaction time 6 h
# [10] = 45° C., heat treatment of enzyme yes, reaction time 6 h
# [11] = 45 °C, heat treatment of enzyme: no, 0 h
# [12] = 45 °C, heat treatment of enzyme: no, 1 h
# [13] = 45 °C, heat treatment of enzyme: no, 3 h
# [14] = 45 °C, heat treatment of enzyme: no, 6 h
# [15] = 45 °C, heat treatment of enzyme: yes, 6 h
# [16] = 55° C., heat treatment of enzyme no, reaction time 0 h
# [17] = 55° C., heat treatment of enzyme no, reaction time 1 h
# [18] = 55° C., heat treatment of enzyme no, reaction time 3 h
# [19] = 55° C., heat treatment of enzyme no, reaction time 6 h
# [20] = 55° C., heat treatment of enzyme yes, reaction time 6 h
# [21] = 55 °C, heat treatment of enzyme: no, 0 h
# [22] = 55 °C, heat treatment of enzyme: no, 1 h
# [23] = 55 °C, heat treatment of enzyme: no, 3 h
# [24] = 55 °C, heat treatment of enzyme: no, 6 h
# [25] = 55 °C, heat treatment of enzyme: yes, 6 h
# [26] = 65° C., heat treatment of enzyme no, reaction time 0 h
# [27] = 65° C., heat treatment of enzyme no, reaction time 1 h
# [28] = 65° C., heat treatment of enzyme no, reaction time 3 h
# [29] = 65° C., heat treatment of enzyme no, reaction time 6 h
# [30] = 65° C., heat treatment of enzyme yes, reaction time 6 h
# [31] = 65 °C, heat treatment of enzyme: no, 0 h
# [32] = 65 °C, heat treatment of enzyme: no, 1 h
# [33] = 65 °C, heat treatment of enzyme: no, 3 h
# [34] = 65 °C, heat treatment of enzyme: no, 6 h
# [35] = 65 °C, heat treatment of enzyme: yes, 6 h
# [36] = 80° C., heat treatment of enzyme no, reaction time 0 h
# [37] = 80° C., heat treatment of enzyme no, reaction time 1 h
# [38] = 80° C., heat treatment of enzyme no, reaction time 3 h
# [39] = 80° C., heat treatment of enzyme no, reaction time 6 h
# [40] = 80° C., heat treatment of enzyme yes, reaction time 6 h
# [41] = 80 °C, heat treatment of enzyme: no, 0 h
# [42] = 80 °C, heat treatment of enzyme: no, 1 h
# [43] = 80 °C, heat treatment of enzyme: no, 3 h
# [44] = 80 °C, heat treatment of enzyme: no, 6 h
# [45] = 80 °C, heat treatment of enzyme: yes, 6 h
smiles,measurement,setting,value
"O=C(O)CC(=O)OC[C@H]1O[C@@H](Oc2ccc3c(=O)c(-c4ccc(O)cc4)coc3c2)[C@H](O)[C@@H](O)[C@@H]1O [malonyldaidzin, 6″-O-malonyldaidzin]",Decomposition efficiency of daidzin family in concentrated soybean protein,[1],not detected
same,Decomposition efficiency of daidzin family in defatted soybean,[1],43.3%
same,Decomposition efficiency of daidzin family in concentrated soybean protein,[2],not detected
same,Decomposition efficiency of daidzin family in defatted soybean,[2],46.6%
same,Decomposition efficiency of daidzin family in concentrated soybean protein,[3],not detected
same,Decomposition efficiency of daidzin family in defatted soybean,[3],45.2%
same,Decomposition efficiency of daidzin family in concentrated soybean protein,[4],not detected
same,Decomposition efficiency of daidzin family in defatted soybean,[4],45.1%
same,Decomposition efficiency of daidzin family in concentrated soybean protein,[5],not detected
same,Decomposition efficiency of daidzin family in defatted soybean,[5],45.4%
same,Decomposition efficiency of daidzin family in soymilk,"30 °C, heat treatment of enzyme: no, 0 h",56.8%
same,Decomposition efficiency of daidzin family in soymilk,"30 °C, heat treatment of enzyme: no, 1 h",58.2%
same,Decomposition efficiency of daidzin family in soymilk,"30 °C, heat treatment of enzyme: no, 3 h",52.8%
same,Decomposition efficiency of daidzin family in soymilk,"30 °C, heat treatment of enzyme: no, 6 h",46.2%
same,Decomposition efficiency of daidzin family in soymilk,"30 °C, heat treatment of enzyme: yes, 6 h",56.1%
same,Decomposition efficiency of daidzin family in roasted soy flour,"35 °C, heat treatment of enzyme: no, 0 h",not detected
same,Decomposition efficiency of daidzin family in roasted soy flour,"35 °C, heat treatment of enzyme: no, 1 h",not detected
same,Decomposition efficiency of daidzin family in roasted soy flour,"35 °C, heat treatment of enzyme: no, 3 h",not detected
same,Decomposition efficiency of daidzin family in roasted soy flour,"35 °C, heat treatment of enzyme: no, 6 h",not detected
same,Decomposition efficiency of daidzin family in roasted soy flour,"35 °C, heat treatment of enzyme: yes, 6 h",not detected
same,Decomposition efficiency of daidzin family in concentrated soybean protein,[6],not detected
same,Decomposition efficiency of daidzin family in defatted soybean,[6],43.3%
same,Decomposition efficiency of daidzin family in concentrated soybean protein,[7],not detected
same,Decomposition efficiency of daidzin family in defatted soybean,[7],45.5%
same,Decomposition efficiency of daidzin family in concentrated soybean protein,[8],not detected
same,Decomposition efficiency of daidzin family in defatted soybean,[8],43.7%
same,Decomposition efficiency of daidzin family in concentrated soybean protein,[9],not detected
same,Decomposition efficiency of daidzin family in defatted soybean,[9],41.7%
same,Decomposition efficiency of daidzin family in concentrated soybean protein,[10],not detected
same,Decomposition efficiency of daidzin family in defatted soybean,[10],44.3%
same,Decomposition efficiency of daidzin family in roasted soy flour,[11],not detected
same,Decomposition efficiency of daidzin family in soymilk,[11],57.2%
same,Decomposition efficiency of daidzin family in roasted soy flour,[12],not detected
same,Decomposition efficiency of daidzin family in soymilk,[12],50.2%
same,Decomposition efficiency of daidzin family in roasted soy flour,[13],not detected
same,Decomposition efficiency of daidzin family in soymilk,[13],41.1%
same,Decomposition efficiency of daidzin family in roasted soy flour,[14],not detected
same,Decomposition efficiency of daidzin family in soymilk,[14],30.2%
same,Decomposition efficiency of daidzin family in roasted soy flour,[15],not detected
same,Decomposition efficiency of daidzin family in soymilk,[15],55.8%
same,Decomposition efficiency of daidzin family in concentrated soybean protein,[16],not detected
same,Decomposition efficiency of daidzin family in defatted soybean,[16],43.3%
same,Decomposition efficiency of daidzin family in concentrated soybean protein,[17],not detected
same,Decomposition efficiency of daidzin family in defatted soybean,[17],45.0%
same,Decomposition efficiency of daidzin family in concentrated soybean protein,[18],not detected
same,Decomposition efficiency of daidzin family in defatted soybean,[18],42.7%
same,Decomposition efficiency of daidzin family in concentrated soybean protein,[19],not detected
same,Decomposition efficiency of daidzin family in defatted soybean,[19],40.3%
same,Decomposition efficiency of daidzin family in concentrated soybean protein,[20],not detected
same,Decomposition efficiency of daidzin family in defatted soybean,[20],44.1%
same,Decomposition efficiency of daidzin family in roasted soy flour,[21],not detected
same,Decomposition efficiency of daidzin family in soymilk,[21],57.3%
same,Decomposition efficiency of daidzin family in roasted soy flour,[22],not detected
same,Decomposition efficiency of daidzin family in soymilk,[22],50.9%
same,Decomposition efficiency of daidzin family in roasted soy flour,[23],not detected
same,Decomposition efficiency of daidzin family in soymilk,[23],41.1%
same,Decomposition efficiency of daidzin family in roasted soy flour,[24],not detected
same,Decomposition efficiency of daidzin family in soymilk,[24],31.1%
same,Decomposition efficiency of daidzin family in roasted soy flour,[25],not detected
same,Decomposition efficiency of daidzin family in soymilk,[25],50.8%
same,Decomposition efficiency of daidzin family in concentrated soybean protein,[26],not detected
same,Decomposition efficiency of daidzin family in defatted soybean,[26],43.3%
same,Decomposition efficiency of daidzin family in concentrated soybean protein,[27],not detected
same,Decomposition efficiency of daidzin family in defatted soybean,[27],44.7%
same,Decomposition efficiency of daidzin family in concentrated soybean protein,[28],not detected
same,Decomposition efficiency of daidzin family in defatted soybean,[28],41.6%
same,Decomposition efficiency of daidzin family in concentrated soybean protein,[29],not detected
same,Decomposition efficiency of daidzin family in defatted soybean,[29],37.3%
same,Decomposition efficiency of daidzin family in concentrated soybean protein,[30],not detected
same,Decomposition efficiency of daidzin family in defatted soybean,[30],35.2%
same,Decomposition efficiency of daidzin family in roasted soy flour,[31],not detected
same,Decomposition efficiency of daidzin family in soymilk,[31],56.8%
same,Decomposition efficiency of daidzin family in roasted soy flour,[32],not detected
same,Decomposition efficiency of daidzin family in soymilk,[32],51.7%
same,Decomposition efficiency of daidzin family in roasted soy flour,[33],not detected
same,Decomposition efficiency of daidzin family in soymilk,[33],43.9%
same,Decomposition efficiency of daidzin family in roasted soy flour,[34],not detected
same,Decomposition efficiency of daidzin family in soymilk,[34],35.3%
same,Decomposition efficiency of daidzin family in roasted soy flour,[35],not detected
same,Decomposition efficiency of daidzin family in soymilk,[35],42.4%
same,Decomposition efficiency of daidzin family in concentrated soybean protein,[36],not detected
same,Decomposition efficiency of daidzin family in defatted soybean,[36],43.3%
same,Decomposition efficiency of daidzin family in concentrated soybean protein,[37],not detected
same,Decomposition efficiency of daidzin family in defatted soybean,[37],39.8%
same,Decomposition efficiency of daidzin family in concentrated soybean protein,[38],not detected
same,Decomposition efficiency of daidzin family in defatted soybean,[38],28.8%
same,Decomposition efficiency of daidzin family in concentrated soybean protein,[39],not detected
same,Decomposition efficiency of daidzin family in defatted soybean,[39],17.8%
same,Decomposition efficiency of daidzin family in concentrated soybean protein,[40],not detected
same,Decomposition efficiency of daidzin family in defatted soybean,[40],17.4%
same,Decomposition efficiency of daidzin family in roasted soy flour,[41],not detected
same,Decomposition efficiency of daidzin family in soymilk,[41],57.2%
same,Decomposition efficiency of daidzin family in roasted soy flour,[42],not detected
same,Decomposition efficiency of daidzin family in soymilk,[42],50.8%
same,Decomposition efficiency of daidzin family in roasted soy flour,[43],not detected
same,Decomposition efficiency of daidzin family in soymilk,[43],36.4%
same,Decomposition efficiency of daidzin family in roasted soy flour,[44],not detected
same,Decomposition efficiency of daidzin family in soymilk,[44],23.0%
same,Decomposition efficiency of daidzin family in roasted soy flour,[45],not detected
same,Decomposition efficiency of daidzin family in soymilk,[45],21.8%
